Data: patent US20060069132A1, “Azolecarboxamide herbicides” (priority 2004, published 2006)

Assays:
barnyardgrass = test: Test B pre-/postemergence herbicide test; format: in vivo, Echinochloa crus-galli
Procedure, shortened: (§1)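 Formulation: non-phytotoxic solvent mix with surfactant. Timing: preemergence on seed and postemergence on 2–18 cm plants, applied concurrently. Readout after 13–15 d greenhouse: visual 0–100 control rating against controls.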

Surinam grass = test: Test B pre-/postemergence herbicide test; format: in vivo, Urochloa decumbens
Procedure, shortened: (§2)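 Pre: seeds sown, then sprayed. Post: 1–4-leaf plants (2–18 cm) sprayed at the same time. Paddy: flooded, treated at 2-leaf stage. Formulation: non-phytotoxic solvent with surfactant. Greenhouse 13–15 days; visual 0–100 score relative to controls.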

cocklebur = test: Test B pre-/postemergence herbicide test; format: in vivo, Xanthium strumarium
Procedure, shortened: as §1

corn = test: Test B pre-/postemergence herbicide test; format: in vivo, Zea mays
Procedure, shortened: as §2

large crabgrass = test: Test B pre-/postemergence herbicide test; format: in vivo, Digitaria sanguinalis
Procedure, shortened: as §2

giant foxtail = test: Test B pre-/postemergence herbicide test; format: in vivo, Setaria faberi
Procedure, shortened: as §2

morningglory = test: Test B pre-/postemergence herbicide test; format: in vivo, Ipomoea coccinea
Procedure, shortened: as §1

pigweed = test: Test B pre-/postemergence herbicide test; format: in vivo, Amaranthus retroflexus
Procedure, shortened: as §2

velvetleaf = test: Test B pre-/postemergence herbicide test; format: in vivo, Abutilon theophrasti
Procedure, shortened: as §2

blackgrass = test: Test B postemergence herbicide test; format: in vivo, Alopecurus myosuroides
Procedure, shortened: (§3)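 Scale 0–100: zero equals no visible effect, 100 complete control, judged by eye relative to controls. Timing: 13 to 15 days in greenhouse post-treatment. Growth stage at spraying: two leaves (paddy) or one to four leaves, 2–18 cm (postemergence).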

wheat = test: Test B postemergence herbicide test; format: in vivo, Triticum aestivum; parameters: key to Wheat plant response rating: 0 = no effect, 100 = complete control
Procedure, shortened: (§4)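 Greenhouse test; postemergence application to plants at 1–4 leaves (2–18 cm); paddy species at 2 leaves; evaluated visually vs controls at 13–15 days; scale 0–100 (100 = complete control).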

wild oat = test: Test B postemergence herbicide test; format: in vivo, Avena fatua
Procedure, shortened: as §4

rice = test: Test B flooded paddy test; format: in vivo, Oryza sativa; conditions: 1000 g ai/ha, scale 0 to 100 (0 no effect, 100 complete control)
Procedure, shortened: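 Plants grow to 1- to 4-leaf stage (2–18 cm) for postemergence spraying, or to 2-leaf stage for the paddy test. Formulated compound is applied. Greenhouse holding lasts 13–15 days. Response is scored visually relative to controls, 0 no effect to 100 complete control; a dash means no result.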

[1] = system: small flower umbrella sedge; test: Test B flooded paddy test; format: in vivo, Cyperus difformis; conditions: 1000 g ai/ha, scale 0 to 100 (0 no effect, 100 complete control)
Procedure, shortened: as §3

ducksalad = test: Test B flooded paddy test; format: in vivo, Heteranthera limosa; conditions: 1000 g ai/ha, scale 0 to 100 (0 no effect, 100 complete control)
Procedure, shortened: as §3

[2] = 125 g ai/ha, 0 = no effect, 100 = complete control, preemergence
[3] = 500 g ai/ha, visual rating, 0 = no effect, 100 = complete control, preemergence
[4] = postemergence, 125 g ai/ha, visual rating, scale 0 (no effect) to 100 (complete control)
[5] = postemergence, 500 g ai/ha, visual rating, scale 0 (no effect) to 100 (complete control)
[6] = Postemergence, 125 g ai/ha, scale 0 (no effect) to 100 (complete control)
[7] = Postemergence, 500 g ai/ha, visual rating after 13 to 15 days, scale 0 (no effect) to 100 (complete control)
[8] = Preemergence, 500 g ai/ha, scale 0 to 100
[9] = preemergence, 125 g ai/ha, 0 to 100 scale, 0 is no effect, 100 is complete control
[10] = 125 g ai/ha, 0 is no effect, 100 is complete control, preemergence
[11] = 125 g ai/ha, visual rating, scale 0 (no effect) to 100 (complete control), postemergence
[12] = postemergence, 500 g ai/ha, scale 0 to 100, 0 is no effect, 100 is complete control
[13] = 125 g ai/ha; visual rating, scale 0 (no effect) to 100 (complete control); postemergence
[14] = postemergence, 500 g ai/ha; scale 0 to 100, 0 is no effect, 100 is complete control

CCc1nc(C(C)(C)C)sc1C(=O)Nc1cccc(C(=O)NC(C)(C)C)n1 [Compound 216]
80: Ducksalad plant response rating (ducksalad; visual rating, 13 to 15 days)
20: Surinam Grass plant response rating (Surinam grass; [5]) | Foxtail, Giant plant response rating (giant foxtail; [5]) | Pigweed plant response rating (pigweed; [5])
90: Plant response rating, Pigweed (pigweed; [3]) | Sedge, Umbrella plant response rating ([1]; visual rating, 13 to 15 days)
60: Plant response rating, Foxtail, Giant (giant foxtail; [3]) | Velvetleaf plant response rating (velvetleaf; [5])
0: Barnyardgrass plant response rating (0 to 100 scale) (barnyardgrass; [2]) | Barnyardgrass plant response rating (barnyardgrass; [4]) | Surinam Grass plant response rating (0 to 100 scale) (Surinam grass; [2]) | Surinam Grass plant response rating (Surinam grass; [4]) | Cocklebur plant response rating (0 to 100 scale) (cocklebur; [2]) | Plant response rating, Cocklebur (cocklebur; [3]) | Cocklebur plant response rating (cocklebur; [4]) | Corn plant response rating (0 to 100 scale) (corn; [2]) | Plant response rating, Corn (corn; [3]) | Corn plant response rating (corn; [4]) | Crabgrass, Large plant response rating (0 to 100 scale) (large crabgrass; [2]) | Crabgrass, Large plant response rating (large crabgrass; [4]) | Crabgrass, Large plant response rating (large crabgrass; [5]) | Foxtail, Giant plant response rating (0 to 100 scale) (giant foxtail; [2]) | Foxtail, Giant plant response rating (giant foxtail; [4]) | Morningglory plant response rating (0 to 100 scale) (morningglory; [2]) | Plant response rating, Morningglory (morningglory; [3]) | Morningglory plant response rating (morningglory; [4]) | Morningglory plant response rating (morningglory; [5]) | Pigweed plant response rating (0 to 100 scale) (pigweed; [2]) | Pigweed plant response rating (pigweed; [4]) | Velvetleaf plant response rating (0 to 100 scale) (velvetleaf; [2]) | Plant response rating, Velvetleaf (velvetleaf; [3]) | Velvetleaf plant response rating (velvetleaf; [4]) | Blackgrass plant response rating (blackgrass; [4]) | Blackgrass plant response rating (blackgrass; [5]) | Wheat plant response rating (wheat; postemergence, 125 g ai/ha; visual rating, scale 0 (no effect) to 100 (complete control)) | Oat, Wild plant response rating (wild oat; [4]) | Oat, Wild plant response rating (wild oat; [5])
30: Rice plant response rating (rice; visual rating, 13 to 15 days)
40: Plant response rating, Barnyardgrass (barnyardgrass; [3]) | Plant response rating, Crabgrass, Large (large crabgrass; [3])
70: Plant response rating, Surinam Grass (Surinam grass; [3]) | Cocklebur plant response rating (cocklebur; [5])
10: Barnyardgrass plant response rating (barnyardgrass; [5]) | Corn plant response rating (corn; [5]) | Wheat plant response rating (wheat; postemergence, 500 g ai/ha; visual rating, scale 0 (no effect) to 100 (complete control))

CCNC(=O)c1cccc(NC(=O)c2cc(C(C)(C)C)nn2CC(F)(F)F)c1 [Compound 31]
90: Barnyardgrass plant response rating (barnyardgrass; [8]) | Plant response rating, Cocklebur (cocklebur; [7]) | Foxtail, Giant plant response rating (giant foxtail; [8]) | Plant response rating, Pigweed (pigweed; [7]) | Velvetleaf plant response rating (velvetleaf; [8])
0: Blackgrass plant response rating (blackgrass; [6])
10: Barnyardgrass plant response rating (barnyardgrass; [6]) | Plant response rating, Wheat (wheat; Postemergence, 500 g ai/ha; visual rating after 13 to 15 days, scale 0 (no effect) to 100 (complete control))
70: Plant response rating, Morningglory (morningglory; [7]) | Plant response rating, Pigweed (pigweed; [9])
40: Cocklebur plant response rating (cocklebur; [8])
20: Corn plant response rating (corn; [8]) | Crabgrass, Large plant response rating (large crabgrass; [6]) | Foxtail, Giant plant response rating (giant foxtail; [6]) | Oat, Wild plant response rating (wild oat; [6])
60: Plant response rating, Surinam Grass (Surinam grass; [7]) | Surinam Grass plant response rating (Surinam grass; [8]) | Plant response rating, Foxtail, Giant (giant foxtail; [9])
80: Cocklebur plant response rating (cocklebur; [6]) | Morningglory plant response rating (morningglory; [8]) | Plant response rating, Velvetleaf (velvetleaf; [9]) | Rice plant response rating (rice; visual rating, 13 to 15 days) | Ducksalad plant response rating (ducksalad; visual rating, 13 to 15 days)
50: Plant response rating, Barnyardgrass (barnyardgrass; [7]) | Crabgrass, Large plant response rating (large crabgrass; [8]) | Plant response rating, Velvetleaf (velvetleaf; [7]) | Plant response rating, Blackgrass (blackgrass; [7]) | Sedge, Umbrella plant response rating ([1]; visual rating, 13 to 15 days)
30: Plant response rating, Surinam Grass (Surinam grass; [9]) | Corn plant response rating (corn; [6]) | Plant response rating, Corn (corn; [7]) | Plant response rating, Crabgrass, Large (large crabgrass; [7]) | Plant response rating, Foxtail, Giant (giant foxtail; [7]) | Morningglory plant response rating (morningglory; [6]) | Plant response rating, Oat, Wild (wild oat; [7])
100: Pigweed plant response rating (pigweed; [8])

CCN(CC)C(=O)c1cccc(NC(=O)c2cc(C(C)(C)C)nn2C)n1 [Compound 314]
80: Plant response rating, Surinam Grass (Surinam grass; [3]) | Morningglory plant response rating (morningglory; [12])
70: Pigweed plant response rating (pigweed; [12])
0: Plant response rating (0 to 100 scale), Cocklebur (cocklebur; [10]) | Plant response rating, Cocklebur (cocklebur; [3]) | Plant response rating (0 to 100 scale), Corn (corn; [10]) | Plant response rating (0 to 100 scale), Morningglory (morningglory; [10]) | Wheat plant response rating (wheat; [13]) | Rice plant response rating (rice) | Ducksalad plant response rating (ducksalad)
100: Plant response rating, Foxtail, Giant (giant foxtail; [3]) | Plant response rating, Pigweed (pigweed; [3]) | Plant response rating, Velvetleaf (velvetleaf; [3])
20: Plant response rating (0 to 100 scale), Surinam Grass (Surinam grass; [10]) | Surinam Grass plant response rating (Surinam grass; [11]) | Surinam Grass plant response rating (Surinam grass; [12]) | Corn plant response rating (corn; [12]) | Plant response rating (0 to 100 scale), Crabgrass, Large (large crabgrass; [10]) | Crabgrass, Large plant response rating (large crabgrass; [12]) | Foxtail, Giant plant response rating (giant foxtail; [11]) | Foxtail, Giant plant response rating (giant foxtail; [12]) | Morningglory plant response rating (morningglory; [11]) | Plant response rating, Morningglory (morningglory; [3]) | Plant response rating (0 to 100 scale), Velvetleaf (velvetleaf; [10]) | Velvetleaf plant response rating (velvetleaf; [11]) | Blackgrass plant response rating (blackgrass; [12])
10: Plant response rating (0 to 100 scale), Barnyardgrass (barnyardgrass; [10]) | Barnyardgrass plant response rating (barnyardgrass; [11]) | Cocklebur plant response rating (cocklebur; [11]) | Corn plant response rating (corn; [11]) | Plant response rating, Corn (corn; [3]) | Crabgrass, Large plant response rating (large crabgrass; [11]) | Blackgrass plant response rating (blackgrass; [11]) | Wheat plant response rating (wheat; [14]) | Oat, Wild plant response rating (wild oat; [11])
90: Plant response rating, Barnyardgrass (barnyardgrass; [3]) | Plant response rating (0 to 100 scale), Pigweed (pigweed; [10])
30: Barnyardgrass plant response rating (barnyardgrass; [12]) | Cocklebur plant response rating (cocklebur; [12]) | Plant response rating, Crabgrass, Large (large crabgrass; [3]) | Plant response rating (0 to 100 scale), Foxtail, Giant (giant foxtail; [10]) | Velvetleaf plant response rating (velvetleaf; [12]) | Oat, Wild plant response rating (wild oat; [12])
60: Pigweed plant response rating (pigweed; [11]) | Sedge, Umbrella plant response rating [1]

CCOC(=O)c1cccc(NC(=O)c2cc(C3(C)CC3)nn2CC)c1 [Compound 295]
30: Barnyardgrass plant response rating (barnyardgrass; [11]) | Crabgrass, Large plant response rating (large crabgrass; [11]) | Blackgrass plant response rating (blackgrass; [11]) | Wheat plant response rating (wheat; [14])
90: Cocklebur plant response rating (cocklebur; [12])
10: Barnyardgrass plant response rating (0 to 100 scale) (barnyardgrass; [2]) | Corn plant response rating (corn; [11]) | Plant response rating, Corn (corn; [3]) | Crabgrass, Large plant response rating (0 to 100 scale) (large crabgrass; [2]) | Foxtail, Giant plant response rating (0 to 100 scale) (giant foxtail; [2])
40: Cocklebur plant response rating (cocklebur; [11]) | Blackgrass plant response rating (blackgrass; [12]) | Oat, Wild plant response rating (wild oat; [11])
20: Plant response rating, Barnyardgrass (barnyardgrass; [3]) | Plant response rating, Surinam Grass (Surinam grass; [3]) | Corn plant response rating (corn; [12]) | Plant response rating, Morningglory (morningglory; [3]) | Wheat plant response rating (wheat; [13])
50: Barnyardgrass plant response rating (barnyardgrass; [12]) | Surinam Grass plant response rating (Surinam grass; [11]) | Morningglory plant response rating (morningglory; [11]) | Oat, Wild plant response rating (wild oat; [12]) | Rice plant response rating (rice)
100: Morningglory plant response rating (morningglory; [12]) | Pigweed plant response rating (pigweed; [11]) | Pigweed plant response rating (pigweed; [12]) | Velvetleaf plant response rating (velvetleaf; [12])
70: Plant response rating, Foxtail, Giant (giant foxtail; [3]) | Foxtail, Giant plant response rating (giant foxtail; [12]) | Velvetleaf plant response rating (velvetleaf; [11]) | Ducksalad plant response rating (ducksalad)
0: Surinam Grass plant response rating (0 to 100 scale) (Surinam grass; [2]) | Cocklebur plant response rating (0 to 100 scale) (cocklebur; [2]) | Plant response rating, Cocklebur (cocklebur; [3]) | Corn plant response rating (0 to 100 scale) (corn; [2]) | Morningglory plant response rating (0 to 100 scale) (morningglory; [2]) | Pigweed plant response rating (0 to 100 scale) (pigweed; [2])
80: Plant response rating, Crabgrass, Large (large crabgrass; [3]) | Sedge, Umbrella plant response rating [1]
60: Surinam Grass plant response rating (Surinam grass; [12]) | Crabgrass, Large plant response rating (large crabgrass; [12]) | Foxtail, Giant plant response rating (giant foxtail; [11]) | Plant response rating, Velvetleaf (velvetleaf; [3])
